Test results: patent EP0717746B1, “PHOSPHINIC ACID DERIVATIVES WITH ANTI-HYPER GLYCEMIC AND/OR ANTI-OBESITY ACTIVITY” (SMITHKLINE BEECHAM PLC, priority 1993, dated 1995)
pEC50: −log10 of the molar value.

Target: T1, human β3-adrenoceptor (Homo sapiens, UniProt P13945)
T1 construct: expressed in transfected cells; host or cells: CHO cells (stably transfected subclones); plasma membranes prepared
Experiment: β3-Adrenoceptor-mediated adenylyl cyclase activity in CHO cell plasma membranes
Assay type: biochemical
Settings: concentration of agonist producing 50 % activation of adenylyl cyclase; CHO cell plasma membranes transfected with the human β3-adrenoceptor; cAMP produced over 20 minutes
Method: Subclones of CHO cells were stably transfected with each of the human β1, β2 and β3-adrenoceptors^1. Cells were then disrupted by immersion in ice-cold lysis buffer (10 mM TRIS, 2mM EDTA , pH 7.4) containing protease inhibitors leupeptin and benzamidine (5 µg / ml) and soyabean trypsin inhibitor (10 µg / ml). Membranes were prepared by the method of Bouvier et. al.^2 and stored in 1 ml aliquots in liquid N2 for future use.
Adenylyl cyclase activity was assayed by the method of Kirkham et. al.^3 by the addition of 40 µl (70 -80 µg protein) to the incubation medium of the above CHO cell plasma membranes transfected with the human β3-adrenoceptor . cAMP produced over 20 minutes was separated from ATP by the method of Salomon et al.^4. Agonist EC50 values and intrinsic activities were expressed as the concentration of agonist producing 50 % activation of adenylyl cyclase and the maximum response produced by each agonist relative to that produced by (-) isoprenaline respectively.

T1 sequence (P13945 whole entry): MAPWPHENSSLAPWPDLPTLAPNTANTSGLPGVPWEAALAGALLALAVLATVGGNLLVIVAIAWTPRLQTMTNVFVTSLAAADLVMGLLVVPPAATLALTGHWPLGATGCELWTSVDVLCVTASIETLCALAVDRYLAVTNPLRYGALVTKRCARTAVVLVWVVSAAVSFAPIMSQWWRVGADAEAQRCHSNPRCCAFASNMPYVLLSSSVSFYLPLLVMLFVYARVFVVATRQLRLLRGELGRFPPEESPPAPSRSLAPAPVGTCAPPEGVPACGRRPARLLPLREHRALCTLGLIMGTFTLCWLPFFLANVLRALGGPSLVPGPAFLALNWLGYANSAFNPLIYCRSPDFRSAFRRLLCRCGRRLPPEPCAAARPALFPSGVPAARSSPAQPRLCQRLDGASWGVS

Row | Compound | pEC50
1 | CCOP(=O)(CC)COc1ccc(CC(C)NC[C@H](O)c2ccc(O)c(O)c2)cc1 (some centres unmarked) [Example 2, (RR RS) Ethyl 4-[2-[2-(3,4-dihydroxyphenyl)-2-hydroxyethylamino]propyl]phenoxymethylethylphosphinate] | 6.34
2 | CC(Cc1ccc(OCP(=O)(O)c2ccccc2)cc1)NC[C@H](O)c1ccc(O)c(O)c1 (some centres unmarked) [Example 3, (RR RS) 4-[2-[2-(3,4-Dihydroxyphenyl)-2-hydroxyethylamino]propyl]phenoxymethyl phenylphosphinic acid.] | 6.27
